# Laboratory results taken from US20220305012A1, “L[…] TREATING SLEEP ISSUES” (EISAI R&D MANAGEMENT CO., LTD., priority 2019, published 2022).
# How the values were obtained:
# Format in all cases: in vivo, human
# [1] = test system: Subjects Having Insomnia Disorder; assay: Example 2: sleep efficiency (SE), polysomnography
# Experimental: (§1) In some embodiments, a sleep parameter is determined objectively using polysomnography. Polysomnography is the monitoring of multiple electrophysiological parameters during sleep and generally includes measurement of EEG activity, electro-oculographic activity and electromyographic activity, as well as other measurements.
# SE—sleep efficiency: proportion of time spent asleep per time in bed, calculated as TST/interval from lights off until lights on.
# (§2) The treatment period lasted for 31 days. Subjects were randomized in a double-blind manner and received placebo, a tablet containing 5 mg of lemborexant, a tablet containing 10 mg of lemborexant, or a tablet containing 6.25 mg of zolpidem ER.
# (§3) Within 5 minutes of the subject's mean habitual bedtime, study drug was administered and an overnight polysomnogram recording was initiated. At completion of the recording the following morning (Day 2), postural stability and cognitive performance were assessed. On the Day 2 evening, subjects returned to the clinic and a blood sample was collected before administering study drug, and then study drug was administered within 5 minutes of the subject's mean habitual bedtime. Again, a polysomnogram recording was initiated. The next morning (Day 3), postural stability and cognitive performance were assessed. A blood sample was also collected.
# (§4) On Day 29, subjects returned to the clinic. Study drug was administered within 5 minutes of the subject's mean habitual bedtime and a polysomnogram recording was conducted. On the following morning (Day 30), postural stability and cognitive performance were assessed. After 1.5 hours of waketime, subjects rated their morning sleepiness level.
# (§5) On the evening of Day 30, subjects returned to the clinic. A pre-dose blood sample was collected and study drug was again administered within 5 minutes of the subject's mean habitual bedtime. A polysomnogram recording was initiated. The following morning (Day 31), postural stability and cognitive performance were assessed and a blood sample was obtained. The ISI, FSS, EQ-5D-3L and PGI-Insomnia were administered. Blood and urine samples were collected for routine safety assessment. An electrocardiogram was performed, and vital signs and weight were assessed. The eC-SSRS was then administered to the subject. At 1.5 hours after waketime, subjects rated their morning sleepiness level.
# One key secondary endpoint was to determine the change from baseline for mean sleep efficiency on Days 29 and 30 after administration of 5 mg or 10 mg of lemborexant, compared to placebo.
# [2] = test system: Subjects Having Insomnia Disorder; assay: Example 2: minutes asleep in sleep stages (N1, N2, N3, REM, non-REM); conditions: both doses (FIG. 15)
# Experimental: FIG. 13A, FIG. 13B, and FIG. 13C show the change from baseline (least squares mean) in the minutes asleep during Stage N1, Stage N2, and Stage N3 sleep, respectively, at Nights 1/2 and Nights 29/30 in patients treated with placebo, 6.25 mg of zolpidem, 5 mg of lemborexant, or 10 mg of lemborexant.
# [3] = test system: Subjects Having Insomnia Disorder; assay: Example 2: wake after sleep onset in the second half of the night (WASO2H), polysomnography
# Experimental: as §1
# WASO2H: wake after sleep onset in the second half of the night: minutes of wake during the interval from 240 minutes after lights off until lights on.
# as §2, §3, §4, §5
# Another key secondary endpoint was to determine the change from baseline for mean wake after sleep onset in the second half of the night on Days 29 and 30 after administration of 5 mg or 10 mg of lemborexant compared to administration of 6.25 mg of zolpidem ER.
# [4] = test system: Subjects Having Insomnia Disorder; assay: Example 1: treatment-emergent adverse events; conditions: for TEAEs: Safety Analysis Set
# Experimental: Subjects were randomized in a double-blind manner and received either placebo, 5 mg of lemborexant, or 10 mg of lemborexant (approximately 1:1:1 randomization). All subjects underwent routine safety monitoring through the study, including assessments of treatment-emergent adverse events, 12-lead electrocardiograms, vital signs, weight, and clinical hematology and blood chemistry labs. Suicidality was assessed using the eC-SSRS.
# Safety endpoints for this study included the safety and tolerability of lemborexant (1) compared to placebo (during treatment period 1) and (2) in subjects exposed to lemborexant for 3, 6, 9, and 12 months.
# [5] = Days 29/30, Zolpidem ER 6.25 mg
structure (smiles),measurement,setting,value
"Cc1ncc(OC[C@@]2(c3cccc(F)c3)C[C@H]2C(=O)Nc2ccc(F)cn2)c(C)n1 [Lemborexant, (1R,2S)-2-(((2,4-dimethylpyrimidin-5-yl)oxy)methyl)-2-(3-fluorophenyl)-N-(5-fluoropyridin-2-yl)cyclopropanecarboxamide]","Sleep Efficiency, Change from Study Baseline, Mean (SD)","[1]; Days 1/2, Lemborexant 5 mg",13.60 (9.725)
same,"Sleep Efficiency, Change from Study Baseline, Median","[1]; Days 1/2, Lemborexant 5 mg",12.40
same,"Sleep Efficiency, Mean (SD)","[1]; Days 1/2, Lemborexant 5 mg",81.96 (8.384)
same,"Sleep Efficiency, Median","[1]; Days 1/2, Lemborexant 5 mg",83.62
same,"Sleep Efficiency, Change from Study Baseline, Mean (SD)","[1]; Days 1/2, Lemborexant 10 mg",16.48 (9.623)
same,"Sleep Efficiency, Change from Study Baseline, Median","[1]; Days 1/2, Lemborexant 10 mg",15.47
same,"Sleep Efficiency, Mean (SD)","[1]; Days 1/2, Lemborexant 10 mg",84.33 (7.608)
same,"Sleep Efficiency, Median","[1]; Days 1/2, Lemborexant 10 mg",85.73
same,"Sleep Efficiency, Change from Study Baseline, LSM treatment difference: Lemborexant-Zolpidem","[1]; Days 29/30, Lemborexant 5 mg",3.92 (0.705)
same,"Sleep Efficiency, Change from Study Baseline, Mean (SD)","[1]; Days 29/30, Lemborexant 5 mg",12.93 (9.741)
same,"Sleep Efficiency, Change from Study Baseline, Median","[1]; Days 29/30, Lemborexant 5 mg",11.85
same,"Sleep Efficiency, Mean (SD)","[1]; Days 29/30, Lemborexant 5 mg",81.29 (8.800)
same,"Sleep Efficiency, Median","[1]; Days 29/30, Lemborexant 5 mg",83.26
same,"Sleep Efficiency, Change from Study Baseline, LSM treatment difference: Lemborexant-Zolpidem","[1]; Days 29/30, Lemborexant 10 mg",4.88 (0.702)
same,"Sleep Efficiency, Change from Study Baseline, Mean (SD)","[1]; Days 29/30, Lemborexant 10 mg",14.09 (10.514)
same,"Sleep Efficiency, Change from Study Baseline, Median","[1]; Days 29/30, Lemborexant 10 mg",13.57
same,"Sleep Efficiency, Mean (SD)","[1]; Days 29/30, Lemborexant 10 mg",81.99 (8.801)
same,"Sleep Efficiency, Median","[1]; Days 29/30, Lemborexant 10 mg",83.52
same,mean sleep efficiency,"[1]; all lemborexant treatment groups, relative to baseline, placebo and zolpidem treatment groups (Table 14)",increased
same,non-REM sleep,[2],greater increase in non-REM sleep compared to treatment with placebo and zolpidem ER
same,"Wake After Sleep Onset in the Second Half of the Night, Change from Study Baseline, Mean (SD)","[3]; Days 1/2, Lemborexant 5 mg",−30.28 (32.056)
same,"Wake After Sleep Onset in the Second Half of the Night, Change from Study Baseline, Median","[3]; Days 1/2, Lemborexant 5 mg",−27.63
same,"Wake After Sleep Onset in the Second Half of the Night, Mean (SD)","[3]; Days 1/2, Lemborexant 5 mg",46.32 (25.600)
same,"Wake After Sleep Onset in the Second Half of the Night, Median","[3]; Days 1/2, Lemborexant 5 mg",40.88
same,"Wake After Sleep Onset in the Second Half of the Night, Change from Study Baseline, Mean (SD)","[3]; Days 1/2, Lemborexant 10 mg",−37.10 (30.815)
same,"Wake After Sleep Onset in the Second Half of the Night, Change from Study Baseline, Median","[3]; Days 1/2, Lemborexant 10 mg",−32.00
same,"Wake After Sleep Onset in the Second Half of the Night, Mean (SD)","[3]; Days 1/2, Lemborexant 10 mg",39.78 (23.709)
same,"Wake After Sleep Onset in the Second Half of the Night, Median","[3]; Days 1/2, Lemborexant 10 mg",34.00
same,"Wake After Sleep Onset in the Second Half of the Night, Change from Study Baseline, LSM treatment difference: Lemborexant-Zolpidem","[3]; Days 29/30, Lemborexant 5 mg",−6.65 (2.298)
same,"Wake After Sleep Onset in the Second Half of the Night, Change from Study Baseline, Mean (SD)","[3]; Days 29/30, Lemborexant 5 mg",−27.19 (33.047)
same,"Wake After Sleep Onset in the Second Half of the Night, Change from Study Baseline, Median","[3]; Days 29/30, Lemborexant 5 mg",−25.63
same,"Wake After Sleep Onset in the Second Half of the Night, Mean (SD)","[3]; Days 29/30, Lemborexant 5 mg",49.11 (28.179)
same,"Wake After Sleep Onset in the Second Half of the Night, Median","[3]; Days 29/30, Lemborexant 5 mg",42.13
same,"Wake After Sleep Onset in the Second Half of the Night, Change from Study Baseline, LSM treatment difference: Lemborexant-Zolpidem","[3]; Days 29/30, Lemborexant 10 mg",−8.00 (2.309)
same,"Wake After Sleep Onset in the Second Half of the Night, Change from Study Baseline, Median","[3]; Days 29/30, Lemborexant 10 mg",−27.25
same,"Wake After Sleep Onset in the Second Half of the Night, Mean (SD)","[3]; Days 29/30, Lemborexant 10 mg",48.15 (27.844)
same,"Wake After Sleep Onset in the Second Half of the Night, Median","[3]; Days 29/30, Lemborexant 10 mg",41.75
same,mean wake after sleep onset in the second half of the night,"[3]; all lemborexant treatment groups, relative to baseline, placebo and zolpidem treatment groups (Table 16)",reduced
same,Deaths,[4]; 5 mg (N = 314),0 n (%)
same,Other SAEs,[4]; 5 mg (N = 314),7 (2.2) n (%)
same,SAEs: Congenital anomaly/birth defect,[4]; 5 mg (N = 314),0 n (%)
same,SAEs: Important medical events,[4]; 5 mg (N = 314),1 (0.3) n (%)
same,SAEs: Life threatening,[4]; 5 mg (N = 314),0 n (%)
same,SAEs: Persistent or significant disability or incapacity,[4]; 5 mg (N = 314),0 n (%)
same,SAEs: Requires inpatient hospitalization or prolongation of existing hospitalization,[4]; 5 mg (N = 314),6 (1.9) n (%)
same,Serious TEAEs,[4]; 5 mg (N = 314),7 (2.2) n (%)
same,Severe TEAEs,[4]; 5 mg (N = 314),13 (4.1) n (%)
same,TEAEs leading to study dose reduced,[4]; 5 mg (N = 314),0 n (%)
same,TEAEs leading to study drug dose adjustment,[4]; 5 mg (N = 314),25 (8.0) n (%)
same,TEAEs leading to study drug interrupted,[4]; 5 mg (N = 314),13 (4.1) n (%)
same,TEAEs leading to study drug withdrawal,[4]; 5 mg (N = 314),13 (4.1) n (%)
same,Treatment-related TEAEs,[4]; 5 mg (N = 314),78 (24.8) n (%)
same,TEAEs,[4]; 5 mg (N = 314),192 (61.1) n (%)
same,Deaths,[4]; 10 mg (N = 314),0 n (%)
same,Other SAEs,[4]; 10 mg (N = 314),9 (2.9) n (%)
same,SAEs: Congenital anomaly/birth defect,[4]; 10 mg (N = 314),0 n (%)
same,SAEs: Important medical events,[4]; 10 mg (N = 314),0 n (%)
same,SAEs: Life threatening,[4]; 10 mg (N = 314),0 n (%)
same,SAEs: Persistent or significant disability or incapacity,[4]; 10 mg (N = 314),0 n (%)
same,SAEs: Requires inpatient hospitalization or prolongation of existing hospitalization,[4]; 10 mg (N = 314),9 (2.9) n (%)
same,Serious TEAEs,[4]; 10 mg (N = 314),9 (2.9) n (%)
same,Severe TEAEs,[4]; 10 mg (N = 314),8 (2.5) n (%)
same,TEAEs leading to study dose reduced,[4]; 10 mg (N = 314),0 n (%)
same,TEAEs leading to study drug dose adjustment,[4]; 10 mg (N = 314),33 (10.5) n (%)
same,TEAEs leading to study drug interrupted,[4]; 10 mg (N = 314),8 (2.5) n (%)
same,TEAEs leading to study drug withdrawal,[4]; 10 mg (N = 314),26 (8.3) n (%)
same,Treatment-related TEAEs,[4]; 10 mg (N = 314),91 (29.0) n (%)
same,TEAEs,[4]; 10 mg (N = 314),187 (59.6) n (%)
same,safety and tolerability (incidence of adverse events),[4]; Example 1 (Table 11),safe and well-tolerated
"Cc1ccc(-c2nc3ccc(C)cn3c2CC(=O)N(C)C)cc1 [Zolpidem ER, zolpidem, reference compound]","Sleep Efficiency, Change from Study Baseline, Mean (SD)","[1]; Days 1/2, Zolpidem ER 6.25 mg",11.70 (9.725)
same,"Sleep Efficiency, Change from Study Baseline, Median","[1]; Days 1/2, Zolpidem ER 6.25 mg",10.83
same,"Sleep Efficiency, Mean (SD)","[1]; Days 1/2, Zolpidem ER 6.25 mg",79.85 (8.461)
same,"Sleep Efficiency, Median","[1]; Days 1/2, Zolpidem ER 6.25 mg",80.73
same,"Sleep Efficiency, Change from Study Baseline, Mean (SD)",[1]; [5],9.06 (11.230)
same,"Sleep Efficiency, Change from Study Baseline, Median",[1]; [5],8.39
same,"Sleep Efficiency, Mean (SD)",[1]; [5],77.17 (10.185)
same,"Sleep Efficiency, Median",[1]; [5],78.70
same,"Wake After Sleep Onset in the Second Half of the Night, Change from Study Baseline, Mean (SD)","[3]; Days 1/2, Zolpidem ER 6.25 mg",−24.64 (33.347)
same,"Wake After Sleep Onset in the Second Half of the Night, Change from Study Baseline, Median","[3]; Days 1/2, Zolpidem ER 6.25 mg",−24.13
same,"Wake After Sleep Onset in the Second Half of the Night, Mean (SD)","[3]; Days 1/2, Zolpidem ER 6.25 mg",53.30 (27.706)
same,"Wake After Sleep Onset in the Second Half of the Night, Median","[3]; Days 1/2, Zolpidem ER 6.25 mg",49.25
same,"Wake After Sleep Onset in the Second Half of the Night, Change from Study Baseline, Mean (SD)",[3]; [5],−21.42 (36.257)
same,"Wake After Sleep Onset in the Second Half of the Night, Change from Study Baseline, Median",[3]; [5],−19.13
same,"Wake After Sleep Onset in the Second Half of the Night, Mean (SD)",[3]; [5],56.74 (31.112)
same,"Wake After Sleep Onset in the Second Half of the Night, Median",[3]; [5],51.25
